Laboratory results from the NIST ThermoML archive (doi:10.1021/acs.jced.5b00978).
Values joined by “and” are separate entries in the source; they are usually repeats but may differ in a detail not shown here. Identical values can stand only once.

Key:
[1] = Molar enthalpy of transition or fusion; conditions: Crystal; DSC
[2] = for Normal melting temperature: DTA

COC(=O)c1ccc(C#N)cc1 [methyl p-cyanobenzoate]
Conditions | Molar enthalpy of transition or fusion [kcal/mol]
[1] | 5.21

[2], Closed cell (Static) method
Conditions | vapor or sublimation pressure [kPa]
303.93 K, Crystal | 0.00066
306.95 K, Crystal | 0.00092
309.92 K, Crystal | 0.0013
312.93 K, Crystal | 0.00183
315.91 K, Crystal | 0.00252
318.88 K, Crystal | 0.00347
321.94 K, Crystal | 0.00479
324.93 K, Crystal | 0.00649
327.89 K, Crystal | 0.00872
330.89 K, Crystal | 0.01165
333.86 K, Crystal | 0.01562
336.84 K, Crystal | 0.02058
339.83 K, Liquid | 0.02686
342.81 K, Liquid | 0.0331
345.8 K, Liquid | 0.04054
348.76 K, Liquid | 0.04932
351.75 K, Liquid | 0.06007
354.72 K, Liquid | 0.07314
357.79 K, Liquid | 0.08912
360.66 K, Liquid | 0.1059
363.64 K, Liquid | 0.1276
366.47 K, Liquid | 0.1508
369.42 K, Liquid | 0.1793
372.4 K, Liquid | 0.2131
375.39 K, Liquid | 0.2508
378.3 K, Liquid | 0.2957
381.25 K, Liquid | 0.3487
384.19 K, Liquid | 0.4061
387.18 K, Liquid | 0.4767
390.14 K, Liquid | 0.5554
393.05 K, Liquid | 0.644

Conditions | Normal melting temperature [°C]
[2], Crystal | 65.1

CNc1ccc(C(=O)OC)cc1 [methyl p-(methylamino)benzoate]
Conditions | Molar enthalpy of transition or fusion [kcal/mol]
[1] | 6.57

[2]
Conditions | vapor or sublimation pressure
317.09 K, Crystal, Calculated from knudsen effusion weight loss | 7.8e-05 kPa
319.16 K, Crystal, Calculated from knudsen effusion weight loss | 0.000101 kPa and 0.000103 kPa
321.19 K, Crystal, Calculated from knudsen effusion weight loss | 0.000131 kPa and 0.00013 kPa
323.08 K, Crystal, Calculated from knudsen effusion weight loss | 0.000167 kPa and 0.000165 kPa and 0.000168 kPa
325.15 K, Crystal, Calculated from knudsen effusion weight loss | 0.000213 kPa and 0.000207 kPa and 0.000215 kPa
327.18 K, Crystal, Calculated from knudsen effusion weight loss | 0.000263 kPa and 0.000266 kPa and 0.000271 kPa
329.12 K, Crystal, Calculated from knudsen effusion weight loss | 0.000338 kPa and 0.000335 kPa and 0.000341 kPa
331.22 K, Crystal, Calculated from knudsen effusion weight loss | 0.000427 kPa and 0.000425 kPa and 0.000433 kPa
332.9 K, Crystal, Closed cell (Static) method | 0.00054 kPa
333.17 K, Crystal, Calculated from knudsen effusion weight loss | 0.000537 kPa and 0.000535 kPa and 0.00054 kPa
334.88 K, Crystal, Closed cell (Static) method | 0.00068 kPa
335.09 K, Crystal, Calculated from knudsen effusion weight loss | 0.00068 kPa and 0.000688 kPa and 0.000691 kPa
336.87 K, Crystal, Closed cell (Static) method | 0.00086 kPa
337.17 K, Crystal, Calculated from knudsen effusion weight loss | 0.000869 kPa and 0.000862 kPa and 0.000855 kPa
338.87 K, Crystal, Closed cell (Static) method | 0.00108 kPa
339.18 K, Crystal, Calculated from knudsen effusion weight loss | 0.001064 kPa and 0.00106 kPa and 0.001061 kPa
340.85 K, Crystal, Closed cell (Static) method | 0.00134 kPa
342.84 K, Crystal, Closed cell (Static) method | 0.00167 kPa
344.81 K, Crystal, Closed cell (Static) method | 0.00207 kPa
346.8 K, Crystal, Closed cell (Static) method | 0.00257 kPa
348.77 K, Metastable liquid, Closed cell (Static) method | 0.00482 kPa
348.79 K, Crystal, Closed cell (Static) method | 0.00317 kPa
350.76 K, Metastable liquid, Closed cell (Static) method | 0.0056 kPa
350.81 K, Crystal, Closed cell (Static) method | 0.0039 kPa
352.75 K, Metastable liquid, Closed cell (Static) method | 0.00655 kPa
352.76 K, Crystal, Closed cell (Static) method | 0.00477 kPa
354.74 K, Crystal, Closed cell (Static) method | 0.00575 kPa
354.74 K, Metastable liquid, Closed cell (Static) method | 0.0076 kPa
356.72 K, Metastable liquid, Closed cell (Static) method | 0.00876 kPa
356.73 K, Crystal, Closed cell (Static) method | 0.00703 kPa
358.69 K, Metastable liquid, Closed cell (Static) method | 0.01017 kPa
358.71 K, Crystal, Closed cell (Static) method | 0.0085 kPa
360.67 K, Metastable liquid, Closed cell (Static) method | 0.01173 kPa
360.69 K, Crystal, Closed cell (Static) method | 0.01033 kPa
362.67 K, Metastable liquid, Closed cell (Static) method | 0.01351 kPa
364.65 K, Metastable liquid, Closed cell (Static) method | 0.01561 kPa
366.64 K, Metastable liquid, Closed cell (Static) method | 0.01788 kPa
368.55 K, Closed cell (Static) method, Liquid | 0.02015 kPa
370.6 K, Closed cell (Static) method, Liquid | 0.02331 kPa
372.58 K, Closed cell (Static) method, Liquid | 0.02669 kPa
374.55 K, Closed cell (Static) method, Liquid | 0.03049 kPa
376.53 K, Closed cell (Static) method, Liquid | 0.03459 kPa
378.5 K, Closed cell (Static) method, Liquid | 0.03935 kPa
380.51 K, Closed cell (Static) method, Liquid | 0.04446 kPa
382.47 K, Closed cell (Static) method, Liquid | 0.05044 kPa
384.46 K, Closed cell (Static) method, Liquid | 0.05682 kPa
386.45 K, Closed cell (Static) method, Liquid | 0.06435 kPa
388.41 K, Closed cell (Static) method, Liquid | 0.07241 kPa
390.4 K, Closed cell (Static) method, Liquid | 0.0815 kPa
392.35 K, Closed cell (Static) method, Liquid | 0.09154 kPa

Conditions | Normal melting temperature [°C]
[2], Crystal | 93

COC(=O)c1ccc(C=O)cc1 [methyl 4-formylbenzoate]
Conditions | Molar enthalpy of transition or fusion [kcal/mol]
[1] | 5.11

[2]
Conditions | vapor or sublimation pressure [kPa]
303.1 K, Crystal, Closed cell (Static) method | 0.00069
305.04 K, Crystal, Closed cell (Static) method | 0.00086
307.04 K, Crystal, Closed cell (Static) method | 0.00109
309.04 K, Crystal, Closed cell (Static) method | 0.00137
311.05 K, Crystal, Closed cell (Static) method | 0.00173
313.01 K, Crystal, Closed cell (Static) method | 0.00216
314.99 K, Crystal, Closed cell (Static) method | 0.00268
317.07 K, Crystal, Closed cell (Static) method | 0.00335
319.02 K, Crystal, Closed cell (Static) method | 0.00412
321.01 K, Crystal, Closed cell (Static) method | 0.00511
323.02 K, Crystal, Closed cell (Static) method | 0.00635
324.99 K, Crystal, Closed cell (Static) method | 0.0078
326.93 K, Metastable liquid, Closed cell (Static) method | 0.01165
326.97 K, Crystal, Closed cell (Static) method | 0.00965
328.93 K, Metastable liquid, Closed cell (Static) method | 0.01357
328.97 K, Crystal, Closed cell (Static) method | 0.01165
330.9 K, Metastable liquid, Closed cell (Static) method | 0.01573
330.92 K, Crystal, Closed cell (Static) method | 0.01405
332.84 K, Metastable liquid, Closed cell (Static) method | 0.01823
334.84 K, Metastable liquid, Closed cell (Static) method | 0.02122
336.84 K, Closed cell (Static) method, Liquid | 0.02458
338.85 K, Closed cell (Static) method, Liquid | 0.02803
340.8 K, Closed cell (Static) method, Liquid | 0.03252
342.76 K, Closed cell (Static) method, Liquid | 0.0371
344.76 K, Closed cell (Static) method, Liquid | 0.04283
346.67 K, Closed cell (Static) method, Liquid | 0.04856
348.71 K, Closed cell (Static) method, Liquid | 0.05584
350.65 K, Closed cell (Static) method, Liquid | 0.06347
352.66 K, Closed cell (Static) method, Liquid | 0.07223
354.52 K, Closed cell (Static) method, Liquid | 0.08123
356.6 K, Closed cell (Static) method, Liquid | 0.09314
358.58 K, Closed cell (Static) method, Liquid | 0.1051
360.55 K, Closed cell (Static) method, Liquid | 0.1182
362.49 K, Closed cell (Static) method, Liquid | 0.1338
364.51 K, Closed cell (Static) method, Liquid | 0.1519
366.47 K, Closed cell (Static) method, Liquid | 0.1698
368.46 K, Closed cell (Static) method, Liquid | 0.1902
370.41 K, Closed cell (Static) method, Liquid | 0.2138
372.39 K, Closed cell (Static) method, Liquid | 0.2395
374.28 K, Closed cell (Static) method, Liquid | 0.2657
376.36 K, Closed cell (Static) method, Liquid | 0.298
378.24 K, Closed cell (Static) method, Liquid | 0.3306
380.3 K, Closed cell (Static) method, Liquid | 0.3693
382.21 K, Closed cell (Static) method, Liquid | 0.4085
384.22 K, Closed cell (Static) method, Liquid | 0.4558
386.18 K, Closed cell (Static) method, Liquid | 0.5028
388.17 K, Closed cell (Static) method, Liquid | 0.562

Conditions | Normal melting temperature [°C]
[2], Crystal | 62.1

COC(=O)c1ccc([N+](=O)[O-])cc1 [methyl p-nitrobenzoate]
Conditions | Molar enthalpy of transition or fusion [kcal/mol]
[1] | 5.83

[2]
Conditions | vapor or sublimation pressure [kPa]
319.01 K, Crystal, Closed cell (Static) method | 0.00074
321.07 K, Crystal, Closed cell (Static) method | 0.00092
322.98 K, Crystal, Closed cell (Static) method | 0.00115
325.03 K, Crystal, Closed cell (Static) method | 0.00144
326.97 K, Crystal, Closed cell (Static) method | 0.00177
328.99 K, Crystal, Closed cell (Static) method | 0.0022
330.91 K, Crystal, Closed cell (Static) method | 0.00265
332.94 K, Crystal, Closed cell (Static) method | 0.00333
334.86 K, Crystal, Closed cell (Static) method | 0.00404
336.9 K, Crystal, Closed cell (Static) method | 0.00497
338.83 K, Crystal, Closed cell (Static) method | 0.00597
340.86 K, Crystal, Closed cell (Static) method | 0.00734
342.77 K, Crystal, Closed cell (Static) method | 0.00878
344.81 K, Crystal, Closed cell (Static) method | 0.01073
346.71 K, Crystal, Closed cell (Static) method | 0.01286
348.76 K, Crystal, Closed cell (Static) method | 0.01564
350.59 K, Crystal, Closed cell (Static) method | 0.01843
352.71 K, Crystal, Closed cell (Static) method | 0.02255
354.57 K, Crystal, Closed cell (Static) method | 0.02656
356.66 K, Crystal, Closed cell (Static) method | 0.03213
358.51 K, Crystal, Closed cell (Static) method | 0.03767
360.47 K, Metastable liquid, Closed cell (Static) method | 0.05433
360.61 K, Crystal, Closed cell (Static) method | 0.04542
362.46 K, Metastable liquid, Closed cell (Static) method | 0.0615
362.47 K, Crystal, Closed cell (Static) method | 0.05331
364.43 K, Metastable liquid, Closed cell (Static) method | 0.06971
364.55 K, Crystal, Closed cell (Static) method | 0.06362
370.48 K, Closed cell (Static) method, Liquid | 0.1019
372.46 K, Closed cell (Static) method, Liquid | 0.1149
374.39 K, Closed cell (Static) method, Liquid | 0.1281
376.4 K, Closed cell (Static) method, Liquid | 0.1446
378.37 K, Closed cell (Static) method, Liquid | 0.1615
380.36 K, Closed cell (Static) method, Liquid | 0.1809
382.3 K, Closed cell (Static) method, Liquid | 0.2008
384.27 K, Closed cell (Static) method, Liquid | 0.2241
386.24 K, Closed cell (Static) method, Liquid | 0.2502
388.24 K, Closed cell (Static) method, Liquid | 0.2792
390.19 K, Closed cell (Static) method, Liquid | 0.3091
392.19 K, Closed cell (Static) method, Liquid | 0.3449
394.11 K, Closed cell (Static) method, Liquid | 0.3796
396.19 K, Closed cell (Static) method, Liquid | 0.4248
398.07 K, Closed cell (Static) method, Liquid | 0.4655
400.05 K, Closed cell (Static) method, Liquid | 0.5141
401.96 K, Closed cell (Static) method, Liquid | 0.5665
403.96 K, Closed cell (Static) method, Liquid | 0.6244
405.95 K, Closed cell (Static) method, Liquid | 0.6894
407.87 K, Closed cell (Static) method, Liquid | 0.7541
409.86 K, Closed cell (Static) method, Liquid | 0.8302
411.81 K, Closed cell (Static) method, Liquid | 0.9078
413.78 K, Closed cell (Static) method, Liquid | 0.9952
415.75 K, Closed cell (Static) method, Liquid | 1.088

Conditions | Normal melting temperature [°C]
[2], Crystal | 96.2
